# Data taken from patent US6586391B1, “Method of ameliorating erectile dysfunction” (Queen's University at Kingston, priority 1996, dated 2003).
# Legend:
# [1] = background statement; cited from earlier work
# Male Sprague-Dawley rats [2] = assay: Experiment 1: cumulative vasoconstrictor blockade following acute NO synthase inhibition, MAP response; type: in vivo, rat; conditions: for % of range (MAP lowering as % of MAPrange) / delta MAP (peak MAP lowering): sequential cumulative blockade, mean ± S.D.
# Protocol: (§1) Male Sprague-Dawley rats (325-400 g) obtained from Charles River Laboratories (Montreal, Quebec, Canada) were housed individually under conditions of a 12 h light/12 h dark cycle, with room temperature at 22-24° C., and were provided with Purina Rodent Chow and tap water ad libitum for at least 2 days before any experiments were started.
# The surgical method was based on the technique of Thompson et at. (Hypertension 20: 809-815 (1992)). In brief, rats were anesthetized with ketamine/xylazine (70/5 mg/kg i.p.), and the descending aorta distal to the kidneys was catheterized with small bore TEFLON® tubing (0.012-in. i.d., o.d. 30 gauge, Cole-Parmer, Laval, Quebec, Canada) inserted into vinyl tubing (0.02-in. i.d., 0.060-in, o.d., 23 gauge). […] The catheters were filled with heparinized saline (10 IU/mL) and held in place by a small amount of cyanoacrylate tissue glue at the puncture site. The catheters were tunneled subcutaneously and exteriorized at the back of the neck and sutured in place. Two days after surgery, MAP could be recorded (Narco Physiograph, E&I Instruments, Houston, Tex. or MacLab Data Acquisition System, ADInstruments, Milford, Mass., U.S.A.). After connection, an equilibration period of approximately 30 min was allowed for the determination of the steady state level of MAP before any recording began. Baseline MAP was determined from mean readings over 5 min, taken from each rat at 15 min intervals for at least 1 h prior to the start of any experiment. After obtaining a baseline MAP, the cumulative/sequential vasoconstrictor blockade was started. MAP values are expressed as an average MAP over 2-3 min following the establishment of a new steady state (i.e., MAP is no longer changing).
# NOS was inhibited by a single i.p. injection of N^ω-nitro-L-arginine-methyl ester (L-NAME, Sigma, 100 mg/kg; 100 mg/mL 0.9% sterile saline solution, Baxter Corp., Toronto, Ontario, Canada). The α1-adrenoceptor antagonist prazosin® (Sigma Chemical Company, St. Louis, Mo., U.S.A.) at a dose of 1 mg/Kg (in 0.9% saline and 5% ethanol [vol/vol], total volume 1 mL/kg) was used to block the majority of the SNS induced peripheral vasoconstriction. The non-peptide AT1 receptor antagonist losartan® (Dupont-Merck, 30 mg/kg i.p.) was used to block the effects of Ang II. The V1/V2 receptor antagonist [β-mercapto-β, β-cyclopenta-methylenepropionyl, O-Et-Tyr2-Val4-Arg8]-vasopressin (AVP) (20 μg/kg/min i.v., Sigma) was utilized to block the effects of vasopressin. The effects of the endothelin vasoconstrictor system, via ETA and ETB receptors, were blocked with a commercially available endothelin antagonist PD 145065 (100 mg/kg/min i.v., bolus, donated by Parke-Davis Pharmaceuticals). Each rat in the study received all of the aforementioned vasoconstrictor antagonists (i.e., a cumulative/sequential blockade).
# The interval between administration was up to 15 min, where a new steady state MAP had been established before the blockade of the next vasoconstrictor system.
# All data are expressed as a peak MAP lowering as a mean±S.D. Comparison of means between groups at each treatment level was done using a Student's T-test with the Bonferroni correction method, where appropriate.
# Male Sprague-Dawley rats [3] = assay: Experiment 2: effects of PD 145065 or losartan before or after NOS blockade on MAP; type: in vivo, rat
# Protocol: as §1
# The surgical method was based on the technique of Thompson et at. (Hypertension 20: 809-815 (1992)). […] Two days after surgery, MAP could be recorded (Narco Physiograph, E&I Instruments, Houston, Tex. or MacLab Data Acquisition System, ADInstruments, Milford, Mass., U.S.A.). […] Baseline MAP was determined from mean readings over 5 min, taken from each rat at 15 min intervals for at least 1 h prior to the start of any experiment. […] MAP values are expressed as an average MAP over 2-3 min following the establishment of a new steady state (i.e., MAP is no longer changing).
# After obtaining appropriate baseline steady-state levels of MAP, the effects of administration of losartan (30 mg/kg i.p., n=3, under 30 mg/kg i.p. pentabarbital anesthetic) or PD 145065 (10 mg/kg/min, i,v., n=6, conscious rats previously catheterized) on resting MAP and then on the L-NAME (100 mg/kg, i.p.)-induced pressor response were assessed in two ways. […]
# adult Wistar rats = assay: Apomorphine-induced erection model; type: in vivo, rat
# Protocol: Using the well-established apomorphine (APO)-induced erection model (apomorphine 80 μg/kg, administered subcutaneously), we counted the erections per 30 min interval in adult Wistar rats, per the protocol of Heaton, J. P. W., et al. (1991)(43). Rats were pretested with apomorphine alone to confirm and quantify normal erectile response(control Groups A and B). Rats were then treated with L-NAME (100 mg/kg, administered intraperitoneally) alone, acutely (at<1 h) and at 3 h; or the combination of ETA/B antagonist (PD 145065, 5 mg/kg/min, continuous intravenous infusion)+L-NAME.
# pudendal vasculature = assay: Isolated perfusion of the pudendal vasculature, perfusion pressure response; set-up: species or system rat
# Protocol: Vascular responses using the isolated perfusion of the pudendal vasculature preparation have been assessed. FIG. 3 illustrates the dose response curve to the α-adrenoceptor agonist methoxamine (MXA) alone. FIG. 4 illustrates the dose-response curve to endothelin alone.
# Male Wistar rats (400-500 g), obtained from Charles River Laboratories (Montreal, Quebec, Canada), were housed individually under conditions of a 12 h light/12 h dark cycle (temperature of 22-24° C.), and were provided with Purina Rodent Chow and tap water ad libitum for at least two days before starting any experiment.
# The rats were anaesthetized with sodium pentabarbital (60 mg/kg i.p.) and the lower abdominal aorta was exposed through a mid-line incision. The isolation of the pudendal vasculature was developed by sequential ligation of all branches of the abdominal aorta not directly supplying the pudendal vasculature. The following arteries were dissected free and ligated: iliaca, femoralis, poplitea, glutea cranial, umbilicalis, epigastria caudal, pudenda external, glutea caudal, obturatoria, circumflexa femoris lateral, circumflexa femoris medial. After heparinization (1000 U/kg), the abdominal aorta was cannulated with a smooth, blunted 19-gauge needle. The arterial catheter was placed caudad into the aorta and the vena cava was cut and vented freely through the widely open abdominal cavity. The tip of the needle was advanced down the aorta to the iliac bifurcation and sutured in place. […] The perfusate was infused for 10 min, to flush the penile vasculature of blood, before starting any experiment.
# The perfusate consisted of dextran (15%, average molecular weight: 71,400 Da, Sigma, St. Louis, Mo., U.S.A.) in Tyrode's solution (pH 7.4), which was aerated with 95% O2 and 5% CO2. The composition of the Tyrode's solution was KCI 20, CaCl2.2H2O 32.3, MgCl2.6H2O 5.1, NaH2PO4.2H2O 6.2, NaHCO3 100, glucose 100, and NaCl 800 mg per 100 mL fluid. The perfusate was held in a reservoir, and passed through a bubble trapping/mixing chamber and heating bath by an injection port located prior to the bubble trap for the introduction of pharmacological agents. An in-line peristaltic pump was used to establish flow at 0.5 mL/kg/min (Minipuls 2, Gilson Medical Elec., Inc., Middleton, Wis., U.S.A.). Added pharmacological agents, methoxamine (MXA) and sodium nitroprusside (SNP), were delivered by a syringe pump (Harvard Apparatus Infusion/Withdrawal Pump, Millis, Mass., U.S.A.). A servo-controlled heat chamber served to maintain rectal temperature at 36-38° C.
# [4] = L-NAME (100 mg/kg i.p.) treated group
compound,measurement,setting,value
"ET-1: endothelin-1, vasoconstrictor peptide",potency as a vasoconstrictor relative to Ang II or catecholamines,[1],approximately 100 times
CCCCc1nc(Cl)c(CO)n1Cc1ccc(-c2ccccc2-c2nn[nH]n2)cc1 [losartan],% of range (MAP lowering as % of MAPrange),Male Sprague-Dawley rats [2]; [4],24 ± 12%
same,delta MAP (peak MAP lowering),Male Sprague-Dawley rats [2]; [4],25 ± 13 mmHg
same,% of range (MAP lowering as % of MAPrange),Male Sprague-Dawley rats [2]; saline control group,27 ± 8%
same,delta MAP (peak MAP lowering),Male Sprague-Dawley rats [2]; saline control group,20 ± 6 mmHg
same,level of MAP after treatment,"Male Sprague-Dawley rats [3]; losartan 30 mg/kg i.p., pentabarbital anesthetic, baseline 100±15 mmHg",78±21 mmHg
"[β-mercapto-β, β-cyclopenta-methylenepropionyl, O-Et-Tyr2-Val4-Arg8]-vasopressin [(O-ET)VAVP]",% of range (MAP lowering as % of MAPrange),Male Sprague-Dawley rats [2]; [4],15 ± 9 %
same,delta MAP (peak MAP lowering),Male Sprague-Dawley rats [2]; [4],19 ± 13 mmHg
same,% of range (MAP lowering as % of MAPrange),Male Sprague-Dawley rats [2]; saline control group,37 ± 15%
same,delta MAP (peak MAP lowering),Male Sprague-Dawley rats [2]; saline control group,21 ± 11 mmHg
CN1CCc2cccc3c2[C@H]1Cc1ccc(O)c(O)c1-3 [apomorphine],mean number of erections per 30 min interval,"adult Wistar rats; Group-A (control): apomorphine 80 μg/kg s.c. alone, mean ± S.D.",3.0 ± 1.31
same,mean number of erections per 30 min interval,"adult Wistar rats; Group-B (control): apomorphine 80 μg/kg s.c. alone, mean ± S.D.",2.5 ± 0.58
"COC(=O)[C@@H](N)CCCNC(=N)N[N+](=O)[O-] [L-NAME, N^ω-nitro-L-arginine-methyl ester]",steady state level of MAP,"Male Sprague-Dawley rats [2]; L-NAME-treated animals, before vasoconstrictor blockade",108±9 mmHg
same,experimentally induced pressure increase as a result of NOS inhibition,Male Sprague-Dawley rats [2]; rats,30-40%
same,delta MAP response 20 min after L-NAME,"Male Sprague-Dawley rats [3]; saline pre-treatment group, L-NAME 100 mg/kg i.p.",40±8 mmHg
same,mean number of erections per 30 min interval,"adult Wistar rats; L-NAME 100 mg/kg i.p. alone, at 3 h, apomorphine-induced",3.7 ± 1.38
COc1ccc(OC)c(C(O)C(C)N)c1 (stereo not drawn) [methoxamine],Δ Perfusion Pressure,"pudendal vasculature; Control, methoxamine 0.1 μg/ml, n = 6",0 mmHg
same,Δ Perfusion Pressure,"pudendal vasculature; Control, methoxamine 0.25 μg/ml, n = 6",0 mmHg
same,Δ Perfusion Pressure,"pudendal vasculature; Control, methoxamine 0.5 μg/ml, n = 6",0 mmHg
same,Δ Perfusion Pressure,"pudendal vasculature; Control, methoxamine 1.0 μg/ml, n = 6",4 ± 1 mmHg
same,Δ Perfusion Pressure,"pudendal vasculature; Control, methoxamine 2.0 μg/ml, n = 6",11 ± 2 mmHg
same,Δ Perfusion Pressure,"pudendal vasculature; Control, methoxamine 4.0 μg/ml, n = 6",36 ± 11 mmHg
same,Δ Perfusion Pressure,"pudendal vasculature; Control, methoxamine 8.0 μg/ml, n = 6",67 ± 24 mmHg
same,Δ Perfusion Pressure,"pudendal vasculature; Endothelin sub-pressor, methoxamine 0.1 μg/ml, n = 4",0 mmHg
same,Δ Perfusion Pressure,"pudendal vasculature; Endothelin sub-pressor, methoxamine 0.25 μg/ml, n = 4",34 ± 2 mmHg
same,Δ Perfusion Pressure,"pudendal vasculature; Endothelin sub-pressor, methoxamine 0.5 μg/ml, n = 4",93 ± 30 mmHg
same,Δ Perfusion Pressure,"pudendal vasculature; Endothelin sub-pressor, methoxamine 1.0 μg/ml, n = 4",168 ± 16 mmHg
same,shift of MXA concentration-response (perfusion pressure) relationship to lower concentrations,pudendal vasculature; with low sub-pressor dose of endothelin vs MXA alone,more than 10 fold
CC[C@H](C)[C@H](NC(=O)[C@H](CC(=O)O)NC(=O)[C@H](CC(C)C)NC(=O)[C@H](Cc1c[nH]cn1)NC(=O)[C@@H]1CSSC[C@H](N)C(=O)N[C@@H](CO)C(=O)N[C@H]2CSSC[C@H](NC(=O)[C@H](CCC(=O)O)NC(=O)[C@H](CCCCN)NC(=O)[C@H](CC(=O)O)NC(=O)[C@H](CCSC)NC(=O)[C@H](CC(C)C)NC(=O)[C@H](CO)NC(=O)[C@H](CO)NC2=O)C(=O)N[C@@H](C(C)C)C(=O)N[C@@H](Cc2ccc(O)cc2)C(=O)N[C@@H](Cc2ccccc2)C(=O)N1)C(=O)N[C@H](C(=O)N[C@@H](Cc1c[nH]c2ccccc12)C(=O)O)[C@@H](C)CC [Endothelin],Δ Perfusion Pressure,"pudendal vasculature; Endothelin sub-pressor alone, methoxamine 0 μg/ml, n = 4",0 mmHg
COc1cc2nc(N3CCN(C(=O)c4ccco4)CC3)nc(N)c2cc1OC [prazosin],% of range (MAP lowering as % of MAPrange),Male Sprague-Dawley rats [2]; [4],25 ± 10 %
same,delta MAP (peak MAP lowering),Male Sprague-Dawley rats [2]; [4],27 ± 14 mmHg
same,% of range (MAP lowering as % of MAPrange),Male Sprague-Dawley rats [2]; saline control group,48 ± 8%
same,delta MAP (peak MAP lowering),Male Sprague-Dawley rats [2]; saline control group,36 ± 6 mmHg
